Measurements: patent publication US20230053607A1, “PESTICIDALLY ACTIVE FUSED BICYCLIC HETEROAROMATIC AMINO COMPOUNDS” (SYNGENTA CROP PROTECTION AG, priority 2019, published 2023)

How the values were obtained:
Plutella xylostella [1] = test: Plutella xylostella (diamond back moth), 24-well artificial diet, eggs; format: in vivo; conditions: 192 h, application rate 200 ppm, 8 days after infestation, 24-well plates, read-out: control in at least one of the categories (mortality or growth inhibition)
Protocol: 24-well microtiter plates with artificial diet were treated with aqueous test solutions prepared from 10′000 ppm DMSO stock solutions by pipetting. After drying, Plutella eggs were pipetted through a plastic stencil onto a gel blotting paper and the plate was closed with it. The samples were assessed for mortality and growth inhibition in comparison to untreated samples 8 days after infestation. The following compounds gave an effect of at least 80% control in at least one of the categories (mortality or growth inhibition) at an application rate of 200 ppm: P1, P2, P3, P7, P10.

Spodoptera littoralis = Spodoptera littoralis (Egyptian cotton leaf worm), cotton leaf discs sprayed, L1 larvae; format: in vivo; conditions: foliar, 72 h, application rate 200 ppm, 3 days after infestation, read-out: control in at least one of the categories (mortality, anti-feedant effect or growth inhibition)
Protocol: Cotton leaf discs were placed onto agar in 24-well microtiter plates and sprayed with aqueous test solutions prepared from 10′000 ppm DMSO stock solutions. After drying the leaf discs were infested with five L1 larvae. The samples were assessed for mortality, anti-feeding effect, and growth inhibition in comparison to untreated samples 3 days after infestation. Control of Spodoptera littoralis by a test sample is given when at least one of the categories mortality, anti-feedant effect, and growth inhibition is higher than the untreated sample.

Diabrotica balteata = Diabrotica balteata (corn root worm), maize sprouts sprayed, L2 larvae; format: in vivo; conditions: 96 h, application rate 200 ppm, 4 days after infestation, read-out: control in at least one of the categories (mortality or growth inhibition)
Protocol: Maize sprouts placed onto an agar layer in 24-well microtiter plates were treated with aqueous test solutions prepared from 10′000 ppm DMSO stock solutions by spraying. After drying, the plates were infested with L2 larvae (6 to 10 per well). The samples were assessed for mortality and growth inhibition in comparison to untreated samples 4 days after infestation. The following compounds gave an effect of at least 80% control in at least one of the categories (mortality or growth inhibition) at an application rate of 200 ppm: P1, P2, P3, P6, P7, P8, P10.

Chilo suppressalis = Chilo suppressalis (striped rice stemborer), artificial diet, L2 larvae; format: in vivo; conditions: 144 h, application rate 200 ppm, 6 days after infestation, read-out: control in at least one of the categories (mortality, anti-feedant effect or growth inhibition)
Protocol: 24-well microtiter plates with artificial diet were treated with aqueous test solutions prepared from 10′000 ppm DMSO stock solutions by pipetting. After drying, the plates were infested with L2 larvae (6-8 per well). The samples were assessed for mortality, anti-feeding effect, and growth inhibition in comparison to untreated samples 6 days after infestation. Control of Chilo suppressalis by a test sample is given when at least one of the categories mortality, anti-feedant effect, and growth inhibition is higher than the untreated sample.

Plutella xylostella [2] = test: Plutella xylostella (diamondback moth), 96-well artificial diet, eggs; format: in vivo; conditions: 216 h, application rate 500 ppm, 9 days after infestation, 96-well plates, read-out: control (mortality)
Protocol: 96-well microtiter plates containing artificial diet were treated with aqueous test solutions, prepared from 10′000 ppm DMSO stock solutions, by a liquid handling robot. After drying, eggs (˜30 per well) were infested onto a netted lid which was suspended above the diet. The eggs hatch and L1 larvae move down to the diet. The samples were assessed for mortality 9 days after infestation.

Myzus persicae = Myzus persicae (green peach aphid): feeding/contact activity, sunflower leaf discs; format: in vivo; conditions: foliar, 144 h, application rate 200 ppm, 6 days after infestation, mixed ages
Protocol: Sunflower leaf discs were placed onto agar in a 24-well microtiter plate and sprayed with aqueous test solutions prepared from 10′000 ppm DMSO stock solutions. After drying, the leaf discs were infested with an aphid population of mixed ages. The samples were assessed for mortality 6 days after infestation.

Row | melting point [°C] | SMILES | percent control (mortality or growth inhibition) at 200 ppm (Plutella xylostella [1]) [%] | percent control (mortality, anti-feedant effect or growth inhibition) at 200 ppm (Spodoptera littoralis) [%] | percent control (mortality or growth inhibition) at 200 ppm (Diabrotica balteata) [%] | other results
1 | – | CC(Nc1snc2c(C(F)(F)F)cc(C(F)(F)F)cc12)c1ncnn1-c1ncccn1 (centres unmarked) [P1, N-[1-(2-pyrimidin-2-yl-1,2,4-triazol-3-yl)ethyl]-5,7-bis(trifluoromethyl)-2,1-benzothiazol-3-amine] | ≥ 80 | ≥ 80 | ≥ 80 | –
2 | – | C[C@H](Nc1snc2c(C(F)(F)F)cc(C(F)(F)F)cc12)c1ncnn1-c1ccc(C#N)cn1 [P2, 6-[5-[(1S)-1-[[5,7-bis(trifluoromethyl)-2,1-benzothiazol-3-yl]amino]ethyl]-1,2,4-triazol-1-yl]pyridine-3-carbonitrile] | ≥ 80 | ≥ 80 | ≥ 80 | –
3 | – | CC(c1ncnn1-c1ccc(C#N)cn1)N(C)c1c(C#N)sc2c(C(F)(F)F)cc(C(F)(F)F)cc12 (centres unmarked) [P3, 6-[5-[1-[[2-cyano-5,7-bis(trifluoromethyl)benzothiophen-3-yl]-methyl-amino]ethyl]-1,2,4-triazol-1-yl]pyridine-3-carbonitrile] | ≥ 80 | – | ≥ 80 | percent control (mortality, anti-feedant effect or growth inhibition) at 200 ppm (Chilo suppressalis): ≥ 80%
4 | 192 to 194 | CC(Nc1c(C#N)sc2c(C(F)(F)F)cc(C(F)(F)F)cc12)c1ncnn1-c1ccc(C#N)cn1 (centres unmarked) [P4, 6-[5-[1-[[2-cyano-5,7-bis(trifluoromethyl)benzothiophen-3-yl]amino]ethyl]-1,2,4-triazol-1-yl]pyridine-3-carbonitrile] | – | – | – | –
5 | 195 to 197 | COC(=O)c1sc2c(C(F)(F)F)cc(C(F)(F)F)cc2c1NC(C)c1ncnn1-c1ccc(C#N)cn1 (centres unmarked) [P5, methyl 3-[1-[2-(5-cyano-2-pyridyl)-1,2,4-triazol-3-yl]ethylamino]-5,7-bis(trifluoromethyl)benzothiophene-2-carboxylate] | – | – | – | –
6 | – | CC(Nc1nn(C)c2c(C(F)(F)F)cc(C(F)(F)F)cc12)c1ncnn1-c1ncccn1 (centres unmarked) [P6, 1-methyl-N-[1-(2-pyrimidin-2-yl-1,2,4-triazol-3-yl)ethyl]-5,7-bis(trifluoromethyl)indazol-3-amine] | – | ≥ 80 | ≥ 80 | percent control (mortality, anti-feedant effect or growth inhibition) at 200 ppm (Chilo suppressalis): ≥ 80%
7 | – | CC(c1nccnc1-c1ncccn1)N(CC1CC1)c1nn(C)c2c(C(F)(F)F)cc(C(F)(F)F)cc12 (centres unmarked) [P7, N-(cyclopropylmethyl)-1-methyl-N-[1-(3-pyrimidin-2-ylpyrazin-2-yl)ethyl]-5,7-bis(trifluoromethyl)indazol-3-amine] | ≥ 80 | ≥ 80 | ≥ 80 | percent control (mortality, anti-feedant effect or growth inhibition) at 200 ppm (Chilo suppressalis): ≥ 80%
8 | – | CC(c1nccnc1-c1ncccn1)N(CC1CC1)c1nn(C)c2c(Cl)cc(C(F)(F)F)cc12 (centres unmarked) [P8, 7-chloro-N-(cyclopropylmethyl)-1-methyl-N-[1-(3-pyrimidin-2-ylpyrazin-2-yl)ethyl]-5-(trifluoromethyl)indazol-3-amine] | – | ≥ 80 | ≥ 80 | mortality at 500 ppm (Plutella xylostella [2]): ≥ 80%
9 | 160 to 163 | CC(Nc1noc2c(Cl)cc(C(F)(F)F)cc12)c1nc(Br)nn1-c1ncccn1 (centres unmarked) [P9, N-[1-(5-bromo-2-pyrimidin-2-yl-1,2,4-triazol-3-yl)ethyl]-7-chloro-5-(trifluoromethyl)-1,2-benzoxazol-3-amine] | – | – | – | –
10 | – | CC(Nc1nn(C)c2c(C(F)(F)F)cc(C(F)(F)F)cc12)c1nc(Br)nn1-c1ncccn1 (centres unmarked) [P10, N-[1-(5-bromo-2-pyrimidin-2-yl-1,2,4-triazol-3-yl)ethyl]-1-methyl-5,7-bis(trifluoromethyl)indazol-3-amine] | ≥ 80 | – | ≥ 80 | mortality at 500 ppm (Plutella xylostella [2]): ≥ 80%; percent control (mortality, anti-feedant effect or growth inhibition) at 200 ppm (Chilo suppressalis): ≥ 80%
11 | 262 to 264 | CC(Nc1nn(C)c2c(Cl)cc(C(F)(F)F)cc12)c1nc(Br)nn1-c1ncccn1 (centres unmarked) [P11, N-[1-(5-bromo-2-pyrimidin-2-yl-1,2,4-triazol-3-yl)ethyl]-7-chloro-1-methyl-5-(trifluoromethyl)indazol-3-amine] | – | – | – | –
12 | – | CC(Nc1noc2c(F)cc(F)cc12)c1nccnc1-n1ccnn1 (centres unmarked) [P12, 5,7-difluoro-N-[1-[3-(triazol-1-yl)pyrazin-2-yl]ethyl]-1,2-benzoxazol-3-amine] | – | – | – | mortality at 200 ppm (Myzus persicae): ≥ 80%
13 | 199 to 201 | CC(Nc1noc2c(F)cc(F)cc12)c1nccnc1-n1nccn1 (centres unmarked) [P13, 5,7-difluoro-N-[1-[3-(triazol-2-yl)pyrazin-2-yl]ethyl]-1,2-benzoxazol-3-amine] | – | – | – | –
14 | 175 to 177 | CC(Nc1noc2ccc(Br)cc12)c1ncnn1-c1ccc(C#N)cn1 (centres unmarked) [P16, 6-[5-[1-[(5-bromo-1,2-benzoxazol-3-yl)amino]ethyl]-1,2,4-triazol-1-yl]pyridine-3-carbonitrile] | – | – | – | –
15 | 233 to 235 | CC(Nc1noc2ccc(Br)cc12)c1ncnn1-c1ncccn1 (centres unmarked) [P17, 5-bromo-N-[1-(2-pyrimidin-2-yl-1,2,4-triazol-3-yl)ethyl]-1,2-benzoxazol-3-amine] | – | – | – | –
16 | – | COC(=O)c1cc(Cl)cc2c(N[C@@H](C)c3ncnn3-c3ccc(C#N)cn3)csc12 [P18, methyl 5-chloro-3-[[(1S)-1-[2-(5-cyano-2-pyridyl)-1,2,4-triazol-3-yl]ethyl]amino]benzothiophene-7-carboxylate] | – | – | – | mortality at 500 ppm (Plutella xylostella [2]): ≥ 80%
